# Laboratory results as given in patent US9163013B2, “Use of 1H-indazole-3-carboxamide compounds as glycogen synthase kinase 3 beta inhibitors” (AZIENDE CHIMICHE RIUNITE ANGELINI FRANCESCO A.C.R.A.F. …, priority 2012, dated 2015).
# Structures can show the parent of a compound that is named as a salt.
# Experiments:
# Experiment in all cases: Kinase selectivity panel
# Assay type in all cases: biochemical
# DAPK1 (h) = DAPK1 (h) (Homo sapiens (Human), UniProt P53355); details: duplicate, read-out: % inhibition of control values, DAPK1 (h)
# Experimental: (§1) (a) Compound 1 was tested against a panel of 60 kinases in order to assess its selectivity. The assays were chosen taking into consideration the diversity of assay families.
# (§2) Human recombinant kinases were incubated in the presence of specific peptide substrates plus ATP for different times (10, 15, 30, 60 or 90 minutes) at 22° C. Phosphorylated substrate was detected by LANCE or HTRF technology (CISBIO, MA, USA).
# (§3) Compound 1 was tested at 10 μM in duplicate.
# (§4) The results are expressed as a percent of inhibition of control specific activity obtained in the presence of the test compound 1 and are reported in the following Table 5.
# (§5) (b) Compounds 7, 12, 21 and 24 were tested against the same panel of 60 kinases under the same conditions described above for compound 1.
# (§6) The results are expressed as a percent of inhibition of control specific activity obtained in the presence of the test compounds and are reported in the following Table 6.
# FGFR4 kinase (h) = FGFR4 kinase (h) (Homo sapiens (Human), UniProt P22455); details: duplicate, read-out: % inhibition of control values, FGFR4 kinase (h)
# Experimental: as §1, §2, §3, §4, §5, §6
# NEK7 (h) = NEK7 (h) (Homo sapiens (Human), UniProt Q8TDX7); details: duplicate, read-out: % inhibition of control values, NEK7 (h)
# Experimental: as §1, §2, §3, §4, §5, §6
# Src kinase (h) = Src kinase (h) (Homo sapiens (Human), UniProt P12931); details: duplicate, read-out: % inhibition of control values, Src kinase (h)
# Experimental: as §1, §2, §3, §4, §5, §6
# MNK2 (h) = MNK2 (h) (Homo sapiens (Human), UniProt Q9HBH9); details: duplicate, read-out: % inhibition of control values, MNK2 (h)
# Experimental: as §1, §2, §3, §4, §5, §6
# IKKepsilon (h) (IKBKE) = IKKepsilon (h) (IKBKE) (Homo sapiens (Human), UniProt Q14164); details: duplicate, read-out: % inhibition of control values, IKKepsilon (h) (IKBKE)
# Experimental: as §1, §2, §3, §4, §5, §6
# c-Met kinase (h) = c-Met kinase (h) (Homo sapiens (Human), UniProt P08581); details: duplicate, read-out: % inhibition of control values, c-Met kinase (h)
# Experimental: as §1, §2, §3, §4, §5, §6
# p38delta kinase (h) = p38delta kinase (h) (Homo sapiens (Human), UniProt O15264); details: duplicate, read-out: % inhibition of control values, p38delta kinase (h)
# Experimental: as §1, §2, §3, §4, §5, §6
# ERK2 (h) (P42mapk) = ERK2 (h) (P42mapk) (Homo sapiens (Human), UniProt P28482); details: duplicate, read-out: % inhibition of control values, ERK2 (h) (P42mapk)
# Experimental: as §1, §2, §3, §4, §5, §6
# EphB4 kinase (h) = EphB4 kinase (h) (Homo sapiens (Human), UniProt P54760); details: duplicate, read-out: % inhibition of control values, EphB4 kinase (h)
# Experimental: as §1, §2, §3, §4, §5, §6
# Abl kinase (h) = Abl kinase (h) (Homo sapiens (Human), UniProt P00519); details: duplicate, read-out: % inhibition of control values, Abl kinase (h)
# Experimental: as §1, §2, §3, §4, §5, §6
# CaMK4 (h) = CaMK4 (h) (Homo sapiens (Human), UniProt Q16566); details: duplicate, read-out: % inhibition of control values, CaMK4 (h)
# Experimental: as §1, §2, §3, §4, §5, §6
# PKCalpha (h) = PKCalpha (h) (Homo sapiens (Human), UniProt P17252); details: duplicate, read-out: % inhibition of control values, PKCalpha (h)
# Experimental: as §1, §2, §3, §4, §5, §6
# IKKalpha (h) = IKKalpha (h) (Homo sapiens (Human), UniProt O15111); details: duplicate, read-out: % inhibition of control values, IKKalpha (h)
# Experimental: as §1, §2, §3, §4, §5, §6
# EphA4 kinase (h) = EphA4 kinase (h) (Homo sapiens (Human), UniProt P54764); details: duplicate, read-out: % inhibition of control values, EphA4 kinase (h)
# Experimental: as §1, §2, §3, §4, §5, §6
# Pim2 kinase (h) = Pim2 kinase (h) (Homo sapiens (Human), UniProt Q9P1W9); details: duplicate, read-out: % inhibition of control values, Pim2 kinase (h)
# Experimental: as §1, §2, §3, §4, §5, §6
# ERK1 (h) = ERK1 (h) (Homo sapiens (Human), UniProt P27361); details: duplicate, read-out: % inhibition of control values, ERK1 (h)
# Experimental: as §1, §2, §3, §4, §5, §6
# Fyn kinase (h) = Fyn kinase (h) (Homo sapiens (Human), UniProt P06241); details: duplicate, read-out: % inhibition of control values, Fyn kinase (h)
# Experimental: as §1, §2, §3, §4, §5, §6
# RSK2 (h) = RSK2 (h) (Homo sapiens (Human), UniProt P51812); details: duplicate, read-out: % inhibition of control values, RSK2 (h)
# Experimental: as §1, §2, §3, §4, §5, §6
# PKCgamma (h) = PKCgamma (h) (Homo sapiens (Human), UniProt P05129); details: duplicate, read-out: % inhibition of control values, PKCgamma (h)
# Experimental: as §1, §2, §3, §4, §5, §6
# JAK1 (h) = JAK1 (h) (Homo sapiens (Human), UniProt P23458); details: duplicate, read-out: % inhibition of control values, JAK1 (h)
# Experimental: as §1, §2, §3, §4, §5, §6
# CDK5/p35 (h) = CDK5/p35 (h) (Homo sapiens (Human), UniProt Q00535); details: duplicate, read-out: % inhibition of control values, CDK5/p35 (h)
# Experimental: as §1, §2, §3, §4, §5, §6
# EphB2 kinase (h) = EphB2 kinase (h) (Homo sapiens (Human), UniProt P29323); details: duplicate, read-out: % inhibition of control values, EphB2 kinase (h)
# Experimental: as §1, §2, §3, §4, §5, §6
# TAOK2 (TAO1) (h) = TAOK2 (TAO1) (h) (Homo sapiens (Human), UniProt Q9UL54); details: duplicate, read-out: % inhibition of control values, TAOK2 (TAO1) (h)
# Experimental: as §1, §2, §3, §4, §5, §6
# Pim1 kinase (h) = Pim1 kinase (h) (Homo sapiens (Human), UniProt P11309); details: duplicate, read-out: % inhibition of control values, Pim1 kinase (h)
# Experimental: as §1, §2, §3, §4, §5, §6
# FGFR4 kinase (h), sequence (P22455 22-802): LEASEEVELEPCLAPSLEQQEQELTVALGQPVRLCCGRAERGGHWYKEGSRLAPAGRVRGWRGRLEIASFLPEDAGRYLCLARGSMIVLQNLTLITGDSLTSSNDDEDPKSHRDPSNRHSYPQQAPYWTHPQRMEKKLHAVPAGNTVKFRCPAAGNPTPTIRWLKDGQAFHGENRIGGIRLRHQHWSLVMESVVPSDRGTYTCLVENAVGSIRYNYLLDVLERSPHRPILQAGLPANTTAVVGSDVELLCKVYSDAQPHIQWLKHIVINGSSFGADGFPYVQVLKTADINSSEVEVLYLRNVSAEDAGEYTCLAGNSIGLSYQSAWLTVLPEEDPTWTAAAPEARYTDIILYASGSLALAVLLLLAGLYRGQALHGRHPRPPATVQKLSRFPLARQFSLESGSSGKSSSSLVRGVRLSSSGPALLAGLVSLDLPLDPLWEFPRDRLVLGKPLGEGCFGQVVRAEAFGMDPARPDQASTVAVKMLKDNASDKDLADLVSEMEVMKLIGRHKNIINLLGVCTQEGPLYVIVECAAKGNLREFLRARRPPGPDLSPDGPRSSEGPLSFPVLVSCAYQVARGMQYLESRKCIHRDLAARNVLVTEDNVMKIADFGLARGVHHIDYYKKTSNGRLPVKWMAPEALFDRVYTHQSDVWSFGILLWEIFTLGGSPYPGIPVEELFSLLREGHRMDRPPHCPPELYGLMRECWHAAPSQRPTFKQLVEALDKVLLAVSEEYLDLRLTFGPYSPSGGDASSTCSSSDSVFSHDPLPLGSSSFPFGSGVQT
# CaMK4 (h), sequence (Q16566 whole entry): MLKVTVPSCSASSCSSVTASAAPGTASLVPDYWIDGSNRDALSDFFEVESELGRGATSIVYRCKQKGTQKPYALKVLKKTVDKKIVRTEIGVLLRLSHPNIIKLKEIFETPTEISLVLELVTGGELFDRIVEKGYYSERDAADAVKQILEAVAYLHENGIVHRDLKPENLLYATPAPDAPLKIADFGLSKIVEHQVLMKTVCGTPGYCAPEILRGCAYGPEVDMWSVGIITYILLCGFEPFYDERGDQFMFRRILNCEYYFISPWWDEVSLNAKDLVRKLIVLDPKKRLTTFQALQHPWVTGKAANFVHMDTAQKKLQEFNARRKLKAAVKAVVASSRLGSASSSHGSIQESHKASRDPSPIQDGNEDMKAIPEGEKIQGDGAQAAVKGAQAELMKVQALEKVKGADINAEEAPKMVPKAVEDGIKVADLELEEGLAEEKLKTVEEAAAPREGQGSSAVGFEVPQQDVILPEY
# ERK1 (h), sequence (P27361 whole entry): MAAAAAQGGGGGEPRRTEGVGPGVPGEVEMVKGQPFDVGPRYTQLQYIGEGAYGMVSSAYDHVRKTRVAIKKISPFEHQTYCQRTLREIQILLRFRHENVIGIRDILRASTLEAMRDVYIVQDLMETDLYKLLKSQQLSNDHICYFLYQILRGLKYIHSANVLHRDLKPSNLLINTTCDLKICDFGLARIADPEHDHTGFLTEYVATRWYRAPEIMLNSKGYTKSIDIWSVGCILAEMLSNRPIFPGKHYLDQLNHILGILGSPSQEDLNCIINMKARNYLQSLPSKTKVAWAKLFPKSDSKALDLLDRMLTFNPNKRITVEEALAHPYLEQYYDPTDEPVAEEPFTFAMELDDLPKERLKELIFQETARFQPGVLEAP
# MNK2 (h), sequence (Q9HBH9 whole entry): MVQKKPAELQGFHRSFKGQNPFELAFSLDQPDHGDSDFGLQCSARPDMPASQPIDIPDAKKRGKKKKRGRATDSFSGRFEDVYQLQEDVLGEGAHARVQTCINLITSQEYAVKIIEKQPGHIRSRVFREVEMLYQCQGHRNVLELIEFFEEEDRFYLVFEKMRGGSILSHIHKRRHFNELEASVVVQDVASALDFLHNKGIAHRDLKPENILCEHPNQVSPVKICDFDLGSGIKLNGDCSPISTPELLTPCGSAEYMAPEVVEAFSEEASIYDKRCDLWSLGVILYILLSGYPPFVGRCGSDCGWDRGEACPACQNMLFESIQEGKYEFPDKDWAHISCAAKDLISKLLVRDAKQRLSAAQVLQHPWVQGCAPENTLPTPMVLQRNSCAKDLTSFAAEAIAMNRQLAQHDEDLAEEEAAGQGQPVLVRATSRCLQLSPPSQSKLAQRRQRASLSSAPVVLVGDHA
# Pim2 kinase (h), sequence (Q9P1W9 whole entry): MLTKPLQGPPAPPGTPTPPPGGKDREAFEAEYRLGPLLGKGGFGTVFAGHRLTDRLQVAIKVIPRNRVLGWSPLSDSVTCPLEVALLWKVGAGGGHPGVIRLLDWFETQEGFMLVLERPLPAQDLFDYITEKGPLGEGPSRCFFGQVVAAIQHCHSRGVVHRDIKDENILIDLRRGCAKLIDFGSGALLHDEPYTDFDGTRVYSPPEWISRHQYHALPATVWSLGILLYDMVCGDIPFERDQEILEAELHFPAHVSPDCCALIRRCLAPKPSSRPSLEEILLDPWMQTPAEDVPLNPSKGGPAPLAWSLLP
# JAK1 (h), sequence (P23458 whole entry): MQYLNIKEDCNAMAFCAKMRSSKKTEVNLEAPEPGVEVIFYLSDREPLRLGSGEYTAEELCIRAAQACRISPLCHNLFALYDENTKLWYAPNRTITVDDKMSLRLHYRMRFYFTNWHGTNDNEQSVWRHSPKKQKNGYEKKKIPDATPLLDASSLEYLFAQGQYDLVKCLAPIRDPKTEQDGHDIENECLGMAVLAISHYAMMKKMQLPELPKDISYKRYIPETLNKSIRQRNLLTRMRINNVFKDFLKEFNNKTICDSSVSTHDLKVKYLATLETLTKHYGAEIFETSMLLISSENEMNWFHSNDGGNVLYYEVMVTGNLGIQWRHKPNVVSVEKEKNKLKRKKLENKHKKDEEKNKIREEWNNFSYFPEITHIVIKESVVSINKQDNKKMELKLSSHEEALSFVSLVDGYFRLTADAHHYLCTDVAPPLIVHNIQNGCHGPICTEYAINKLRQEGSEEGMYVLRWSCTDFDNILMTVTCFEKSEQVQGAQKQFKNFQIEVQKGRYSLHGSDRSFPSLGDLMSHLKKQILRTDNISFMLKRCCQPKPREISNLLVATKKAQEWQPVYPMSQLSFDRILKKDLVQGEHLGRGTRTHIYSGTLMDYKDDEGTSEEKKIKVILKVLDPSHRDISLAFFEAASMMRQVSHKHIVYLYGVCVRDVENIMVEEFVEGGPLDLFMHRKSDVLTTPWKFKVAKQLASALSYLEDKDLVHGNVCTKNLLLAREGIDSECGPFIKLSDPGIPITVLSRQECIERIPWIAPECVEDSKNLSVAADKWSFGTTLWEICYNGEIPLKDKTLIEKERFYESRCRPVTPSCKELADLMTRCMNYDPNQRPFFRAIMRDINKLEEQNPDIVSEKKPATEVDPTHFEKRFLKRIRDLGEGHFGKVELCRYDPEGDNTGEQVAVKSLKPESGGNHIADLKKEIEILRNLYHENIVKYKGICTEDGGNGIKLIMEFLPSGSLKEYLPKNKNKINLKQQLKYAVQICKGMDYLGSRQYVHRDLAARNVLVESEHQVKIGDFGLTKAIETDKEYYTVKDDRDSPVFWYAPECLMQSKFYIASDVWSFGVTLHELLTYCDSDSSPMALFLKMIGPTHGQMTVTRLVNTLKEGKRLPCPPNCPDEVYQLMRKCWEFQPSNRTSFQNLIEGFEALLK
# IKKepsilon (h) (IKBKE), sequence (Q14164 whole entry): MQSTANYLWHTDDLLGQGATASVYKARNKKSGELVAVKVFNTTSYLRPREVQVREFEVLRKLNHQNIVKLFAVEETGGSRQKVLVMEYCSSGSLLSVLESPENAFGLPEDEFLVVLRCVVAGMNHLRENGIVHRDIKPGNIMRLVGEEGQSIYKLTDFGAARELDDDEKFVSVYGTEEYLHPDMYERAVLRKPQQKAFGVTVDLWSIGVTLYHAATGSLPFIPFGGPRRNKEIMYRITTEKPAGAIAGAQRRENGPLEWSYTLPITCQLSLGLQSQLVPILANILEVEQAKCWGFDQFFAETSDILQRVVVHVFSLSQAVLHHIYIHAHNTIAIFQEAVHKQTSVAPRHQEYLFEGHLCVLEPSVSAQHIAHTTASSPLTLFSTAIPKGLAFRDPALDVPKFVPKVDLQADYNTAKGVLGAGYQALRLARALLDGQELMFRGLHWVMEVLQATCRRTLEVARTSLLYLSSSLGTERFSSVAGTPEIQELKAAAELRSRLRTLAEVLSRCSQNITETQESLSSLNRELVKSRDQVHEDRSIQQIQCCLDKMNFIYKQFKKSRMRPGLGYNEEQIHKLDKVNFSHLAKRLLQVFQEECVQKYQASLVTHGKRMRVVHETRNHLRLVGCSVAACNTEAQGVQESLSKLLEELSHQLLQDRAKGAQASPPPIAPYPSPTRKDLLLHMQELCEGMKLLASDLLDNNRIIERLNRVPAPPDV
# CDK5/p35 (h), sequence (Q00535 whole entry): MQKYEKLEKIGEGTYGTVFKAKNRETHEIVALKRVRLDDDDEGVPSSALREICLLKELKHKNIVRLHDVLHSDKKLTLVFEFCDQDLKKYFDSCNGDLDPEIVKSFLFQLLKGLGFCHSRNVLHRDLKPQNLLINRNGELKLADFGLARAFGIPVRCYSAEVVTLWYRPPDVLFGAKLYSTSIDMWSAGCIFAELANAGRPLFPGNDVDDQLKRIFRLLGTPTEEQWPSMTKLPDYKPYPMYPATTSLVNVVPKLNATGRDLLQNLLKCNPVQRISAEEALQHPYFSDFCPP
# CDK5/p35 (h), sequence (Q15078 whole entry partner): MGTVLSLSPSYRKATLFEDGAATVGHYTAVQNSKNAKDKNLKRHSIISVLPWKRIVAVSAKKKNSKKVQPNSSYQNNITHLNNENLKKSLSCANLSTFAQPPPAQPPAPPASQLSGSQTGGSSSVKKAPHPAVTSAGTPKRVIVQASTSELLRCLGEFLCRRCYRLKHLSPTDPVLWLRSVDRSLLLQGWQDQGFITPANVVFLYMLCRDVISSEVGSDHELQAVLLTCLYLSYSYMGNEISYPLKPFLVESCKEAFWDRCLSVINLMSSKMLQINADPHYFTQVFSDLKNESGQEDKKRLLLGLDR
inhibition at 10 µM (DAPK1 (h)) [%],inhibition at 10 µM (FGFR4 kinase (h)) [%],inhibition at 10 µM (NEK7 (h)) [%],inhibition at 10 µM (Src kinase (h)) [%],inhibition at 10 µM (MNK2 (h)) [%],inhibition at 10 µM (IKKepsilon (h) (IKBKE)) [%],inhibition at 10 µM (c-Met kinase (h)) [%],inhibition at 10 µM (p38delta kinase (h)) [%],inhibition at 10 µM (ERK2 (h) (P42mapk)) [%],inhibition at 10 µM (EphB4 kinase (h)) [%],inhibition at 10 µM (Abl kinase (h)) [%],inhibition at 10 µM (CaMK4 (h)) [%],inhibition at 10 µM (PKCalpha (h)) [%],inhibition at 10 µM (IKKalpha (h)) [%],inhibition at 10 µM (EphA4 kinase (h)) [%],inhibition at 10 µM (Pim2 kinase (h)) [%],inhibition at 10 µM (ERK1 (h)) [%],inhibition at 10 µM (Fyn kinase (h)) [%],inhibition at 10 µM (RSK2 (h)) [%],inhibition at 10 µM (PKCgamma (h)) [%],SMILES,other results
10,2,9,0,1,4,0,12,33,0,0,14,8,0,0,4,35,13,3,0,"COc1ccc2[nH]nc(C(=O)NCC3CCN(CCc4ccc(O)cc4)CC3)c2c1 [Compound 1, N-({1-[2-(4-hydroxyphenyl)ethyl]-piperidin-4-yl}methyl)-5-methoxy-1H-indazole-3-carboxamide]",inhibition at 10 µM (JAK1 (h)): 0%; inhibition at 10 µM (CDK5/p35 (h)): 30%; inhibition at 10 µM (EphB2 kinase (h)): 0%; inhibition at 10 µM (TAOK2 (TAO1) (h)): 41%; inhibition at 10 µM (Pim1 kinase (h)): 2%
5,0,5,0,6,21,0,35,89,3,0,13,20,5,2,5,81,10,20,0,"COc1ccncc1-c1ccc2[nH]nc(C(=O)NCC3CCN(Cc4ccc(C(=O)O)o4)CC3)c2c1 [Compound 21, 5-({4-[({[5-(4-Methoxypyridin-3-yl)-1H-indazol-3-yl]carbonyl}amino)methyl]piperidin-1-yl}methyl)furan-2-carboxylic acid formate]",inhibition at 10 µM (JAK1 (h)): 10%; inhibition at 10 µM (CDK5/p35 (h)): 98%; inhibition at 10 µM (EphB2 kinase (h)): 2%; inhibition at 10 µM (TAOK2 (TAO1) (h)): 54%; inhibition at 10 µM (Pim1 kinase (h)): 10%
15,4,3,0,0,0,2,4,35,0,0,11,0,2,0,3,22,3,1,0,"COc1ccc2[nH]nc(C(=O)NCC3CCN(Cc4ccc(C(=O)O)o4)CC3)c2c1 [Compound 24, 5-{[4-({[(5-Methoxy-1H-indazol-3-yl)carbonyl]amino}methyl)piperidin-1-yl]methyl}furan-2-carboxylic acid]",inhibition at 10 µM (JAK1 (h)): 1%; inhibition at 10 µM (CDK5/p35 (h)): 16%; inhibition at 10 µM (EphB2 kinase (h)): 0%; inhibition at 10 µM (TAOK2 (TAO1) (h)): 8%; inhibition at 10 µM (Pim1 kinase (h)): 2%
